Laboratory results: patent publication US12195427B2, “MASP-2 inhibitors and methods of use” (priority 2018, dated 2025)

Target: MASP-2 CCP2-SP (Homo sapiens (Human), UniProt O00187)
Assay: MASP-2 co-crystallization, X-ray crystallography and structure analysis (H-bonds, van der Waals contacts);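 on Ligand-pharmacophore element distance, pharmacophore element C2: distance from averaged pharmacophore element to bound ligand; missing value means element absent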;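 on Ligand-pharmacophore element distance, pharmacophore element C3: distance from averaged pharmacophore element to bound ligand; missing value means element absent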;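 on Ligand-pharmacophore element distance, pharmacophore element C4: distance from averaged pharmacophore element to bound ligand; missing value means element absent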;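 on Ligand-pharmacophore element distance, pharmacophore element C5: distance from averaged pharmacophore element to bound ligand; missing value means element absent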
Set-up: van der Waals contact distance, MASP-2 HIS 483 atom CD2 / van der Waals contact distance, MASP-2 HIS 483 atom NE2 / van der Waals contact distance, SER 654 C to compound atom / van der Waals contact distance, SER 654 O to compound atom / van der Waals contact distance, TRP 655 C to compound atom / van der Waals contact distance, MASP-2 GLY 528 atom CA / van der Waals contact distance TRP 655 atom CZ3 / van der Waals contact distance TRP 655 atom N / van der Waals contact distance TRP 655 atom CE3 / van der Waals contact distance GLY 656 atom C / van der Waals contact distance GLY 656 atom CA / van der Waals contact distance GLY 656 atom O / van der Waals contact distance, MASP-2 TYR 607 atom CD1 / van der Waals contact distance, MASP-2 PRO 606 atom O / d(C3,CA1) / d(CA1,N1)2 / d(H4,O1) / d(H4,O2) / d(O1,O2) / d(CA1,O2) / d(CA6,O1) / d(CA6,O2) / d(CA1,C5) / d(O2,H3) / d(N2,C2) / d(CA5,N2) / d(N2,C4) / d(N2,C6) / d(N2,CA3) / d(N2,O3) / d(O4,H2): unit not given beside the values
Settings: for Ligand-pharmacophore element distance, pharmacophore element C2 / Ligand-pharmacophore element distance, pharmacophore element C3 / Ligand-pharmacophore element distance, pharmacophore element C4 / Ligand-pharmacophore element distance, pharmacophore element C5 / Ligand-pharmacophore element distance, pharmacophore element C6 / Ligand-pharmacophore element distance, pharmacophore element C7 / Ligand-pharmacophore element distance, pharmacophore element CA1 / Ligand-pharmacophore element distance, pharmacophore element CA2 / Ligand-pharmacophore element distance, pharmacophore element CA3 / Ligand-pharmacophore element distance, pharmacophore element CA4 / Ligand-pharmacophore element distance, pharmacophore element CA5 / Ligand-pharmacophore element distance, pharmacophore element CA6: Table A4-1; for a(N1, CA1, O1) b): Methyl-amino-pyridine compounds; for a(O1, O2, H3) / a(O1, O2, N2) / a(O2, N2, CA2): Table A6-2 pharmacophore angle; for Pharmacophore protein distance to MET_658 (first MET_658 column) / Pharmacophore protein distance to MET_658 (second MET_658 column) / Pharmacophore protein distance to GLY_528 / Pharmacophore protein distance to PHE_529 / Pharmacophore protein distance to PRO_608 / Pharmacophore protein distance to SER_611 / Pharmacophore protein distance to TRP_655: Table A8-6, nearest protein atom in cell to the left; for Pharmacophore protein distance to MET_658 (first MET_658 column): 6th residue column; for Pharmacophore protein distance to MET_658 (second MET_658 column): 9th residue column; for Pharmacophore protein distance to TRP_655: pharmacophore elements C6, CA3, O3, H1
From the text: This example illustrates the preparation of recombinant MASP-2 protein, based on UniProt O00187, human mannan-binding lectin serine protease 2. Expression constructs for human MASP-2 CCP2-SP and CCP2-SP-6HIS were generated for recombinant expression in E. coli cells.
Typically, crystallization hits were obtained by screening against […] 96-well crystallization reagent kits (GRAS6, GRAS2, Hampton Research; MORPHEUS, Molecular Dimensions; Wizard 1&2 Cryo, Rigaku Reagents) and crystal growth was inspected by optical microscopy. Crystals were used directly or further optimized for X-ray diffraction. Crystals were captured with cryogenic loops and dipped into liquid nitrogen directly or cryoprotected with a 20% glycerol in crystallization formulation before flash-cooling in liquid nitrogen.
Thereafter crystals are transferred once or twice for soaking within the crystallization solution containing the MASP-2 inhibitor.
Crystals were diffracted with synchrotron X-rays of […] and X-ray diffraction datasets were collected at beamlines SSRL BL9-2, BL14-1, BL12-2 as well as ALS sector 5 using Dectris Pilatus and Eiger detectors. Structures were determined by molecular replacement using portions of the structure 1Q3X as search models and partially refined with Buster 2.10.2 or Refmac 5.8. […] When multiple ligand poses were observed, for instance arising from multiple molecules in the asymmetric unit or refined dual poses within the same molecule, only one pose was selected and analyzed.
LigPlot+ calls these ‘nonbonded contacts’ or ‘hydrophobic contacts’. Despite the name, there are atom pairings that include possible H-bonds. Thus, in some instances, the Table A2 also contains H-bond interactions.

[1] = Table A5-1 pharmacophore: distance between elements, S2/S1 region
[2] = Table A5-2 pharmacophore distance, S3/S4 region
[3] = Table A7-1, between pharmacophore elements of the bound compound
[4] = Table A7-2, between pharmacophore elements of the bound compound

Chain of MASP-2 CCP2-SP (O00187 445-686): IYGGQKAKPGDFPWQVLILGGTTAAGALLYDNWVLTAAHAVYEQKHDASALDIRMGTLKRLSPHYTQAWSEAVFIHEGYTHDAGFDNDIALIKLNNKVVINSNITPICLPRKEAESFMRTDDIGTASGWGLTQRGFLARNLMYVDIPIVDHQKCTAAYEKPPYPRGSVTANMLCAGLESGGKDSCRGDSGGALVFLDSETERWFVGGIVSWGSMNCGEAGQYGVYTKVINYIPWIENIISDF
Chain of MASP-2 CCP2-SP (O00187 364-432 partner): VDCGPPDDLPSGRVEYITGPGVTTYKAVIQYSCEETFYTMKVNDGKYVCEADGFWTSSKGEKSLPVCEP

## Cc1nc(N)ccc1CNC(=O)C(C)NC(=O)[C@H]1C[C@H](c2cccc(-c3ccccc3)c2)CN1 (stereo in doubt) [compound 1360, (2R,4R)-4-([1,1′-Biphenyl]-3-yl)-N—((R)-1-(((6-amino-2-methylpyridin-3-yl)methyl)amino)-1-oxopropan-2-yl)pyrrolidine-2-carboxamide]
Table A1 (H-Bonds), ASP 627 OD2
  H-bond distance to MASP-2 ASP 627 atom OD2: 3.15
Table A1 (H-Bonds), GLY 656 N
  H-bond distance to MASP-2 GLY 656 atom N: 3.21
Table A1 (H-Bonds), GLY 656 O
  H-bond distance to MASP-2 GLY 656 atom O: 2.9
Table A1 (H-Bonds), SER 628 O
  H-bond distance to MASP-2 SER 628 atom O: 3.18
Table A1 (H-Bonds), SER 654 O
  H-bond distance to MASP-2 SER 654 atom O: 3.04
Table A1 (H-Bonds), SER 657 O
  H-bond distance to MASP-2 SER 657 atom O: 2.96
Table A2-1
  van der Waals contact distance, MASP-2 HIS 483 atom CD2: 3.76
  van der Waals contact distance, MASP-2 HIS 483 atom NE2: 3.69
Table A2-3
  van der Waals contact distance, MASP-2 PHE 529 atom CE1: 3.78
Table A2-7: SER 628 (CB, O, OG)
  van der Waals contact distance, MASP-2 amino acid atom to compound atom: 3.61
Table A2-12
  van der Waals contact distance, TRP 655 CA to compound atom: 3.44
  Ligand-pharmacophore element distance, pharmacophore element C2: 0
  Ligand-pharmacophore element distance, pharmacophore element C3: 0.11
  Ligand-pharmacophore element distance, pharmacophore element C4: 0
  Ligand-pharmacophore element distance, pharmacophore element C5: 0
  Ligand-pharmacophore element distance, pharmacophore element C6: 0
  Ligand-pharmacophore element distance, pharmacophore element C7: 0
  Ligand-pharmacophore element distance, pharmacophore element CA1: 0.57
  Ligand-pharmacophore element distance, pharmacophore element CA2: 2.35
  Ligand-pharmacophore element distance, pharmacophore element CA3: 0
  Ligand-pharmacophore element distance, pharmacophore element CA4: 0
  Ligand-pharmacophore element distance, pharmacophore element CA5: 1.11
  Ligand-pharmacophore element distance, pharmacophore element CA6: 0
  a(O1, O2, H3): 147.57
  a(O1, O2, N2): 138.89
  a(O2, N2, CA2): 162.09
[1]
  d(C3,CA1): 2.85
  d(CA1,N1)2: 1.36
  d(CA1,O1): 4.35
  d(CA1,O2): 3.85
  d(H4,O1): 4.38
  d(H4,O2): 3.80
  d(O1,O2): 3.32
[2]
  d(CA5,N2): 5.07
  d(N2,CA2): 8.32
  d(O2,H3): 4.32
  d(O2,N2): 2.66
Table A6-1 pharmacophore angle
  a(C3, CA1, O1): 150.18
  a(CA1, O1, O2): 105.67
  a(O1, O2, H4): 132.69
  a(N1, CA1, O1) b): 174.23
[3]
  Pharmacophore torsion angle a(C3, CA1, O1, H4): 24.01
  Pharmacophore torsion angle a(H4, O1, O2, H3): 51.00
  Pharmacophore torsion angle a(H4, O1, O2, N2): 138.89
  Pharmacophore torsion angle a(N1, CA1, O1, H4): 3.34
  Pharmacophore torsion angle a(O1, H4, O2, CA1): −83.81
[4]
  Pharmacophore torsion angle a(O1, O2, N2, CA2): 130.24
  Pharmacophore torsion angle a(O1, O2, N2, CA5): 129.35

## C[C@H](NC(=O)[C@H](N)CCc1ccccc1)C(=O)NCc1ccc(N)nc1.Cl.Cl [1007_1]
  Ligand-pharmacophore element distance, pharmacophore element C2: 0
  Ligand-pharmacophore element distance, pharmacophore element C3: 0
  Ligand-pharmacophore element distance, pharmacophore element C4: 0
  Ligand-pharmacophore element distance, pharmacophore element C5: 0
  Ligand-pharmacophore element distance, pharmacophore element C6: 0
  Ligand-pharmacophore element distance, pharmacophore element C7: 0
  Ligand-pharmacophore element distance, pharmacophore element CA1: 0.35
  Ligand-pharmacophore element distance, pharmacophore element CA2: 0.77
  Ligand-pharmacophore element distance, pharmacophore element CA3: 0
  Ligand-pharmacophore element distance, pharmacophore element CA4: 0
  Ligand-pharmacophore element distance, pharmacophore element CA5: 0
  Ligand-pharmacophore element distance, pharmacophore element CA6: 0
  a(O1, O2, H3): 146.43
  a(O1, O2, N2): 138.95
  a(O2, N2, CA2): 154.71
  Pharmacophore protein distance to MET_658 (first MET_658 column): 2.61
  Pharmacophore protein distance to MET_658 (second MET_658 column): 3.25
  Pharmacophore protein distance to GLY_528: 3.76
  Pharmacophore protein distance to PHE_529: 3.15
  Pharmacophore protein distance to PRO_608: 3.15
  Pharmacophore protein distance to SER_611: 2.06
  Pharmacophore protein distance to TRP_655: 3.70
[1]
  d(CA1,N1)2: 1.38
  d(CA1,O1): 4.39
  d(CA1,O2): 3.86
  d(H4,O1): 3.59
  d(H4,O2): 2.73
  d(O1,O2): 3.55
[2]
  d(N2,CA2): 6.02
  d(O2,H3): 4.41
  d(O2,N2): 2.79
Table A6-1 pharmacophore angle
  a(CA1, O1, O2): 107.37
  a(O1, O2, H4): 113.31
  a(N1, CA1, O1) b): 174.46
[3]
  Pharmacophore torsion angle a(H4, O1, O2, H3): 50.93
  Pharmacophore torsion angle a(H4, O1, O2, N2): 137.94
  Pharmacophore torsion angle a(N1, CA1, O1, H4): 39.07
  Pharmacophore torsion angle a(O1, H4, O2, CA1): −94.99
[4]
  Pharmacophore torsion angle a(O1, O2, N2, CA2): 128.23

## C[C@H](NC(=O)[C@H](N)CCc1ccccc1)C(=O)NCc1ccc(N)nc1.Cl.Cl [1007_2]
  Ligand-pharmacophore element distance, pharmacophore element C2: 0
  Ligand-pharmacophore element distance, pharmacophore element C3: 0
  Ligand-pharmacophore element distance, pharmacophore element C4: 0
  Ligand-pharmacophore element distance, pharmacophore element C5: 0
  Ligand-pharmacophore element distance, pharmacophore element C6: 0
  Ligand-pharmacophore element distance, pharmacophore element C7: 0
  Ligand-pharmacophore element distance, pharmacophore element CA1: 0.59
  Ligand-pharmacophore element distance, pharmacophore element CA2: 0.86
  Ligand-pharmacophore element distance, pharmacophore element CA3: 0
  Ligand-pharmacophore element distance, pharmacophore element CA4: 0
  Ligand-pharmacophore element distance, pharmacophore element CA5: 0
  Ligand-pharmacophore element distance, pharmacophore element CA6: 0
  a(O1, O2, H3): 145.74
  a(O1, O2, N2): 133.10
  a(O2, N2, CA2): 153.46
  Pharmacophore protein distance to MET_658 (first MET_658 column): 2.59
  Pharmacophore protein distance to MET_658 (second MET_658 column): 3.37
  Pharmacophore protein distance to GLY_528: 3.72
  Pharmacophore protein distance to PHE_529: 3.20
  Pharmacophore protein distance to PRO_608: 3.12
  Pharmacophore protein distance to SER_611: 2.21
  Pharmacophore protein distance to TRP_655: 3.60
[1]
  d(CA1,N1)2: 1.38
  d(CA1,O1): 4.52
  d(CA1,O2): 4.00
  d(H4,O1): 3.69
  d(H4,O2): 2.76
  d(O1,O2): 3.63
[2]
  d(N2,CA2): 6.11
  d(O2,H3): 4.67
  d(O2,N2): 2.86
Table A6-1 pharmacophore angle
  a(CA1, O1, O2): 107.55
  a(O1, O2, H4): 113.36
  a(N1, CA1, O1) b): 174.22
[3]
  Pharmacophore torsion angle a(H4, O1, O2, H3): 47.32
  Pharmacophore torsion angle a(H4, O1, O2, N2): 126.25
  Pharmacophore torsion angle a(N1, CA1, O1, H4): 48.80
  Pharmacophore torsion angle a(O1, H4, O2, CA1): −94.30
[4]
  Pharmacophore torsion angle a(O1, O2, N2, CA2): 131.44
